Data from patent US10995101B2, “2-oxo-thiazole derivatives as A2A inhibitors and compounds for use in the treatment of cancers” (iTeos Therapeutics SA, priority 2017, dated 2021).
Where “and” joins values, the source holds several entries; their conditions need not be identical. Equal values may be shown once. Read-outs that look alike come from different tables or passages of the source.

What was measured:
[1] = Concentration in brain and cerebrospinal fluid compared to plasma; format: in vivo, mice; conditions: for concentration at 0.5 h / Kp at 0.5 h / plasma concentration at 0.5 h: female, Balb-c, mouse, po; for plasma concentration at 0.5 h: Plasma Concentration (ng/mL)
Method: 7-9 weeks old female Balb-c mice (obtained from SLAC Laboratory Animal Co. Ltd., Shanghai, China or SIPPR-B&K Laboratory Animal Co. Ltd., Shanghai, China) were dosed orally at a dose of 10 mg/kg, as a 1.00 mg/mL suspension in 10% DMSO+10% solutol+80% water, adjusted to pH 3-4 (homogenous opaque suspension).
Animals were fasted at least 12 hours prior to the administration. All animals had access to Certified Rodent Diet (Catalog # M01-F, SLAC Laboratory Animal Cl. Ltd., Shanghai, China) ad libitum 4 hours post dosing. Serial bleeding (about 30 μL blood per time point) were performed from submadibular or saphenous vein. Those samples were transferred into prechilled microcentrifuge tubes containing 2 μL of K2EDTA (0.5M) as anti-coagulant and placed on wet ice for further treatment. Immediately after blood collection, the whole brain was harvested immediately at the designed time points. At selected timepoints post-dose, CSF was collected from cisterna magna.
Blood samples were processed for plasma by centrifugation at approximately 4° C., 3000 g 15 min within half an hour of collection. Plasma samples were stored in polypropylene tubes, quick frozen over dry ice and kept at −70° C. until LC/MS/MS analysis. Brain samples were weighed, rinsed in cold distilled water to remove blood, and homogenized using pre-cooled water at the ratio of 1:4 (1 g brain used 4 mL water). And the brain homogenization was kept at −70° C. until LC/MSMS analysis. CSF was quick frozen over dry ice and kept at −70° C. until LC/MS/MS analysis.

A2AR = A2AR (Mus musculus, UniProt Q60613); conditions: 10 mg/kg PO 30 min prior to CGS21680; score observed in at least 60-100% of mice for 30 minutes
in vitro = conditions: human, Caco-2, pH 7.4
Method: 2 μM dosing solutions for reference compounds and test compounds are prepared by spiking the appropriate volume of intermediate solution to TB with and without 1 μM Zosuquidar. The final concentration of DMSO is no more than 1% (v/v).
Caco-2 cells are grown in MEM supplemented with 2 mM L-glutamine, 10% FBS, 100 U/mL penicillin-G and 100 μg/mL streptomycin. The cells are incubated at 37° C., 5% CO2 and relatively saturated humidity. After reaching 80-90% confluency, the cells are gently detached with 0.05% trypsin-EDTA solution.
TB and dosing solutions were pre-warmed to 37° C. before transport assay. The cell monolayer was washed twice with HBSS containing 10 mM HEPES. For A-B (apical to basolateral) directional transport assay, 75 μL dosing solution is added to the apical well. Fill each basolateral well with 250 μL TB. For B-A (basolateral to apical) directional transport assay, 250 μL of dosing solution is added to the basolateral well after filling each apical well with 75 μL TB. […] The plates are incubated for 120 minutes at 37° C. with 5% CO2 and saturated humidity. The time zero samples are generated by mixing 50 μL initial dosing solution of test compound or reference compound with 100 μL TB and 250 μL quench solution (acetonitrile (ACN) or other appropriate solvent with internal standard(s), based on the bioanalytical method development). At 120 minutes, 150 μL of solution is collected from each A-B receiver well followed by addition of 250 μL quench solution to get A-B receiver sample. And for other samples (A-B donor, B-A donor and receiver), 50 μL of solution is collected from each corresponding well followed by addition of 250 μL quench solution and 100 μL TB. All samples are vortex-mixed and centrifuged at 3220 g for 20 minutes. Subsequently, supernatant is diluted with ultra pure water for LC-MS/MS analysis. The concentrations of test compound in all samples are determined by LC-MS/MS and expressed as peak area ratio of analyte to internal standard.
The concentration of samples is expressed using the peak area ratio of Analyte to Internal Standard (Analyte/IS).
The efflux ratio is calculated using the following equation: Efflux ratio=Papp(A−B)/Papp(B−A) • where Papp (A−B) and Papp (B−A) are the Papp values of compound in Apical to Basolateral and Basolateral to Apical directional transport, respectively.

A2A receptor [2] = biological target: T1, A2A receptor (Homo sapiens, UniProt P29274); test: Human IL-2 T cell assay (restoration of IL-2 production in CGS-21680-treated CD3+ T cells); format: cell-based; design: endogenous in cells; host or cells: human CD3+ T cells isolated from venous blood of healthy volunteers; conditions: restoration of IL-2 production, human CD3+ T cells, anti-CD3/CD28 beads, 72 hours
Description: When T-cells are activated, they produce pro-inflammatory cytokines. When the A2A receptor is activated in T cells, the amount of cytokines produced in response to stimulation of T-cells is reduced.
Venous blood from healthy volunteers, all of whom signed an informed consent approved by the Ethics Committee (FOR-UIC-BV-050-01-01 ICF_HBS_HD Version 5.0), was obtained via ImmuneHealth (Centre Hospitalier Universitaire Tivoli, La Louviere, Belgium). Mononuclear cells were collected by density gradient centrifugation, using SepMate-50 tubes (StemCell Technologies, Grenoble, France) and Lymphoprep (Axis-shield, Oslo, Norway) according to the manufacturer's instructions. CD3+ T cells were isolated by immunomagnetic negative selection, using the EasySep Human T Cell Isolation Kit (StemCell Technologies) as per manufacturer's instructions. CD3+ T cells were stored in heat inactivated foetal bovine serum (hiFBS; Gibco, ThermoFisher Scientific, Merelbeke, Belgium) containing 10% DMSO in liquid nitrogen.
Human purified CD3+ T cells were thawed and washed twice with RPMI1640 medium (with UltraGlutamine; Lonza, Verviers, Belgium) supplemented with 1× non-essential amino acids (Lonza), 2% Pen/Strep (Lonza) and 1 mM Sodium Pyruvate (Gibco) (complete media), containing 10% hiFBS. The cells were suspended either in complete media containing 20% hiFBS or in 100% heat inactivated human serum (hiHS; Sigma-Aldrich, Diegem, Belgium). Cells were activated by adding anti-CD3 and anti-CD28 coated microbeads (Dynabeads human T-activator CD3/CD28; Life Technologies, Paisley, UK), suspended either in complete media containing 20% hiFBS or in 100% hiHS. […] Serial dilutions of the compounds of the present invention were prepared and added to the wells. The cells were placed in a 37° C. humidified tissue culture incubator with 5% CO2 for 72 hours. After 72 hours, supernatants were sampled and IL-2 was quantified using the IL-2 (human) AlphaLISA Biotin-Free Detection Kit (AL333F; Perkin-Elmer, Zaventem, Belgium), according to the manufacturer's instructions.

A2A receptor [3] = biological target: T1, A2A receptor; test: Modulation of pCREB in human immune cells; format: cell-based; design: endogenous in cells; host or cells: human CD3+ T cells isolated from venous blood of healthy volunteers; conditions: read-out: IC50 of pCREB inhibition
Method: The A2A receptor is known to mediate CREB phosphorylation.
Venous blood from healthy volunteers, all of whom signed an informed consent approved by the Ethics Committee (FOR-UIC-BV-050-01-01 ICF_HBS_HD Version 5.0), was obtained via ImmuneHealth (Centre Hospitalier Universitaire Tivoli, La Louviere, Belgium). […] All dilutions were prepared in RPMI1640 medium (with UltraGlutamine; Lonza, Verviers, Belgium), and cells were incubated with compounds in a 37° C. humidified tissue culture incubator with 5% CO2. After stimulation, cells were fixed and permeabilized, followed by intracellular staining using mouse anti-human pCREB antibodies (Clone J151-21; BD Biosciences) at room temperature. Data were acquired using an LSRFortessa flow cytometer (BD Biosciences) and analyzed using FlowJo software (FlowJo, LLC, Ashland, Oreg.).

[4] = individual mice, PO 10 mg/kg, 0.500 h, 10 mg/kg

T1 sequence (P29274 whole entry): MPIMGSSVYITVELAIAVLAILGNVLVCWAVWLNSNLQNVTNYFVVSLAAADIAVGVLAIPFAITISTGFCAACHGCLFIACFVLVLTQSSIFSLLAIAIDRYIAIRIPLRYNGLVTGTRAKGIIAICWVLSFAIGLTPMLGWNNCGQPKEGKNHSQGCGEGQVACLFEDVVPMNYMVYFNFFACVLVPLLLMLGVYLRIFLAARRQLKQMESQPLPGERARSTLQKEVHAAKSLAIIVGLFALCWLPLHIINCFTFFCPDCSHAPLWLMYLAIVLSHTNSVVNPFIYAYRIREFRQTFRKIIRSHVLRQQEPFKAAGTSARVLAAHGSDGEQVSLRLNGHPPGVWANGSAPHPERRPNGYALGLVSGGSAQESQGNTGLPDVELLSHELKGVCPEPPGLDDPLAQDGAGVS
Sequence of A2AR (Q60613 whole entry): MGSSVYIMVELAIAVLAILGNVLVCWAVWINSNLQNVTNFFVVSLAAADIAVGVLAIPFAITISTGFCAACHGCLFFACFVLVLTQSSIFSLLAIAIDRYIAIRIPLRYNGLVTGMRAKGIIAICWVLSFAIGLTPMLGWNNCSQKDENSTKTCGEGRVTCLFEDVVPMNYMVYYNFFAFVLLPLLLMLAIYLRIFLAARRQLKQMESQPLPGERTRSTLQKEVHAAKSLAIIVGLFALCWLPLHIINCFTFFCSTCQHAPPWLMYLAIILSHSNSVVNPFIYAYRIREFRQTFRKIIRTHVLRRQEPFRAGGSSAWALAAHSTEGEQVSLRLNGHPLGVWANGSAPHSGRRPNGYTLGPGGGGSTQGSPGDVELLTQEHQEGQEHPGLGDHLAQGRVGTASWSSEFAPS

In the case of `NC(=O)COc1cc(N2CCN(CCn3c(=O)sc4c3nc(N)n3nc(-c5ccco5)nc43)CC2)c(F)cc1F` [Compound 4, 2-(5-(4-(2-(5-amino-8-(furan-2-yl)-2-oxothiazolo[5,4-e][1,2,4]triazolo [1,5-c]pyrimidin-3(2H)-yl)ethyl)piperazin-1-yl)-2,4-difluorophenoxy)acetamide], the concentration at 0.5 h ([1]; CSF, 10 mg/kg, individual mice, PO 10 mg/kg, 0.500 h, read-out: CSF Concentration) is reported as less than 3 ng/mL, the Kp at 0.5 h ([1]; CSF, 10 mg/kg, individual mice, PO 10 mg/kg, 0.500 h, read-out: CSF/Plasma Ratio) is reported as less than 0.005 and the concentration at 0.5 h ([1]; CSF, 10 mg/kg, mean of 3 mice, PO 10 mg/kg, 0.500 h, read-out: CSF Concentration (ng/mL), Mean) is reported as less than 3 ng/mL. The Kp at 0.5 h ([1]; CSF, 10 mg/kg, mean of 3 mice, PO 10 mg/kg, 0.500 h, read-out: CSF/Plasma Ratio, Mean) was less than 0.004, the concentration at 0.5 h ([1]; brain, 10 mg/kg, individual mice, PO 10 mg/kg, 0.500 h, read-out: Brain Concentration) was less than 15 ng/g and the Kp at 0.5 h ([1]; brain, 10 mg/kg, individual mice, PO 10 mg/kg, 0.500 h, read-out: Brain/Plasma Ratio) was less than 0.026. The concentration at 0.5 h ([1]; brain, 10 mg/kg, mean of 3 mice, PO 10 mg/kg, 0.500 h, read-out: Brain Concentration (ng/g), Mean) was less than 16 ng/g, the Kp at 0.5 h ([1]; brain, 10 mg/kg, mean of 3 mice, PO 10 mg/kg, 0.500 h, read-out: Brain/Plasma Ratio, Mean) was less than 0.021 and the plasma concentration at 0.5 h ([1]; 10 mg/kg, Mean, mean of 3 mice, PO 10 mg/kg, 0.500 h) was 779 ng/mL. The plasma concentration at 0.5 h ([1]; 10 mg/kg, individual mice, PO 10 mg/kg, 0.500 h, female Balb-c mice) was 576 ng/mL, the “CSF Concentration” value ([1]; individual mice, PO 10 mg/kg, 0.500 h) was less than 3 ng/mL and the “Plasma Concentration” value ([1]; individual mice, PO 10 mg/kg, 0.500 h, female Balb-c mice, 10 mg/kg) was 995 ng/mL and 765 ng/mL. For the same compound, the “Brain Concentration” value [1, 4] was 16.9 ng/g and <15 ng/g, the “Brain/Plasma Ratio” value [1, 4] was 0.0169 and <0.020 and the “CSF/Plasma Ratio” value [1, 4] was <0.003 and <0.004. The “quantity found in brain or CSF” value ([1]; mice, oral 10 mg/kg) was “no measurable quantity”, the “Score (locomotion / immobility)” value (A2AR) was “+++” and the efflux ratio at 120 min, 2 μM (in vitro) was 123. The IC50 (A2A receptor [2]; IC50 (nM) (500 nM CGS-21680 as agonist, 10% FBS), 500 nM CGS-21680, 10% FBS) was 0.3 nM, the IC50 (A2A receptor [2]; IC50 (nM) (5000 nM CGS-21680 as agonist, 50% HSA), 5000 nM CGS-21680, 50% HSA) was 63 nM and the IC50 (A2A receptor [3]) was 20 nM.
